For 39 compounds, IC50 results are on record in patent US9718790B2, “Triazine derivative and pharmaceutical composition having an analgesic activity comprising the same” (SHIONOGI & CO., LTD., priority 2010, dated 2017).

The target of the experiment is human P2X3 receptor (Homo sapiens (Human), UniProt P56373). In words: Evaluation of human P2X3 receptor inhibitory activity (Fluo-3 calcium fluorescence, FDSS 3000, ATP stimulation).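 Further: stimulus was 50 nM ATP with fluorescence followed for 3 min, and the response per well was peak post-ATP fluorescence divided by the reading at measurement start.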 In kind it is cell-based. As to conditions: C6BU-1 cells stably expressing human P2X3 receptor, Fluo-3 fluorescence, FDSS 3000.
human P2X3 receptor, sequence (P56373 whole entry): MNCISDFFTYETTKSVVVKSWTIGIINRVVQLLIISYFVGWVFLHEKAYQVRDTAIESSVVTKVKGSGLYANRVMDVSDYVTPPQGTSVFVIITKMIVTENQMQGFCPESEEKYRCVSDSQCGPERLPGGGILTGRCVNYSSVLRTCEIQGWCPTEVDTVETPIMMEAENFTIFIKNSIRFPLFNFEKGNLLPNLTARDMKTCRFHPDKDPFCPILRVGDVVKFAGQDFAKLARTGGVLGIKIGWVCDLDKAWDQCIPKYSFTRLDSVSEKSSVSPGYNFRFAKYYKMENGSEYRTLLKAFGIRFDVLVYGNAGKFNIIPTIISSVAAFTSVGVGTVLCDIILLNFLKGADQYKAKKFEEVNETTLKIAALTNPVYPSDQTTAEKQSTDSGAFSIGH

The term IC50 denotes the concentration needed to halve the response being measured. For `CCN(c1ccc(/N=c2\[nH]c(=O)n(C[C@H](C)C(=O)OC)c(=O)n2Cc2ccc(Cl)cc2)cc1)C(C)C` [Compound I-0952], the IC50 worked out at 741 nM.

For the compound `COC(=O)[C@@H](C)Cn1c(=O)[nH]/c(=N\c2ccc(OC(C)C)c(C#N)c2)n(Cc2ccc(Cl)cc2)c1=O` [Compound I-0953], the IC50 stood at 42 nM.

`COC(=O)[C@@H](C)Cn1c(=O)[nH]/c(=N\c2ccc(N3CCCCC3)cc2)n(Cc2ccc(Cl)cc2)c1=O` [Compound I-0954]: the IC50 is 23 nM.

For the compound `COC(=O)[C@@H](C)Cn1c(=O)[nH]/c(=N\c2ccc(C=C(C)C)c(Cl)c2)n(Cc2ccc(Cl)cc2)c1=O` [Compound I-0955], the IC50 turned out to be 28 nM.

In the case of `CCOC(=O)CCn1c(=O)[nH]/c(=N\c2ccc(OCC3CC3)c(Cl)c2)n(Cc2ccc(C)cc2)c1=O` [Compound I-0957], the IC50 came out at 25 nM.

For the compound `COC(=O)[C@@H](C)Cn1c(=O)[nH]/c(=N\c2ccc(OCC3CC3)c(Cl)c2)n(Cc2ccc(C)cc2)c1=O` [Compound I-0958], the IC50 turned out to be 30 nM.

Consider `CC(C)=Cc1ccc(/N=c2\[nH]c(=O)n(C[C@H](C)C(=O)O)c(=O)n2Cc2ccc(Cl)cc2)cc1Cl` [Compound I-0959], for which the IC50 came out at 7 nM.

On to `CC(C)Oc1ccc(/N=c2\[nH]c(=O)n(C[C@H](C)C(=O)O)c(=O)n2Cc2ccc(Cl)cc2)cc1C#N` [Compound I-0960], for which the IC50 turned out to be 70 nM.

On to `Cc1ccc(Cn2c(=O)n(C[C@H](C)C(=O)O)c(=O)[nH]/c2=N\c2ccc(OC(C)C)c(C#N)c2)cc1` [Compound I-0961], for which the IC50 was determined as 74 nM.

On to `C[C@@H](Cn1c(=O)[nH]/c(=N\c2ccc(N3CCCCC3)cc2)n(Cc2ccc(Cl)cc2)c1=O)C(=O)O` [Compound I-0962], for which the IC50 turned out to be 31 nM.

Turning to `CCN(c1ccc(/N=c2\[nH]c(=O)n(C[C@H](C)C(=O)O)c(=O)n2Cc2ccc(Cl)cc2)cc1)C(C)C` [Compound I-0963], the IC50 worked out at 662 nM.

On to `COC(=O)[C@H](C)[C@H](C)n1c(=O)[nH]/c(=N\c2ccc(OCC3CC3)cc2)n(Cc2ccc(C)cc2)c1=O` [Compound I-0965], for which the IC50 amounted to 21 nM.

For the compound `CCOc1ccc(/N=c2\[nH]c(=O)n([C@@H](C)[C@@H](C)C(=O)OC)c(=O)n2Cc2ccc(C)cc2)cc1Cl` [Compound I-0966], the IC50 was 17 nM.

For the compound `COC(=O)[C@H](C)[C@H](C)n1c(=O)[nH]/c(=N\c2ccc(OC(C)C)c(F)c2)n(Cc2ccc(C)cc2)c1=O` [Compound I-0967], the IC50 was found to be 19 nM.

`Cc1ccc(Cn2c(=O)n(CCC(=O)O)c(=O)[nH]/c2=N\c2ccc(OCC3CC3)c(Cl)c2)cc1` [Compound I-0968]: the IC50 worked out at 107 nM.

Regarding `COC(=O)[C@H](C)[C@H](C)n1c(=O)[nH]/c(=N\c2ccc(OCC3CC3)c(Cl)c2)n(Cc2ccc(C)cc2)c1=O` [Compound I-0969], the IC50 is 47 nM.

As for `CCOC(=O)C1(Cn2c(=O)[nH]/c(=N\c3ccc(OCC4CC4)c(Cl)c3)n(Cc3ccc(C)cc3)c2=O)CC1` [Compound I-0970], the concentration for half-maximal inhibition (IC50) came to 20 nM.

Turning to `Cc1ccc(Cn2c(=O)n(C[C@H](C)C(=O)O)c(=O)[nH]/c2=N\c2ccc(OCC3CC3)c(Cl)c2)cc1` [Compound I-0971], the half-maximal inhibitory concentration (IC50) stood at 30 nM.

On to `Cc1ccc(Cn2c(=O)n([C@@H](C)[C@@H](C)C(=O)O)c(=O)[nH]/c2=N\c2ccc(OCC3CC3)cc2)cc1` [Compound I-0972], for which the IC50 was determined as 38 nM.

Regarding `CCOc1ccc(/N=c2\[nH]c(=O)n([C@@H](C)[C@@H](C)C(=O)O)c(=O)n2Cc2ccc(C)cc2)cc1Cl` [Compound I-0973], the IC50 came to 19 nM.

On to `Cc1ccc(Cn2c(=O)n([C@@H](C)[C@@H](C)C(=O)O)c(=O)[nH]/c2=N\c2ccc(OC(C)C)c(F)c2)cc1` [Compound I-0974], for which the IC50 was 29 nM.

As for `Cc1ccc(Cn2c(=O)n([C@@H](C)[C@@H](C)C(=O)O)c(=O)[nH]/c2=N\c2ccc(OCC3CC3)c(Cl)c2)cc1` [Compound I-0975], the IC50 worked out at 43 nM.

On to `Cc1ccc(Cn2c(=O)n(CC3(C(=O)O)CC3)c(=O)[nH]/c2=N\c2ccc(OCC3CC3)c(Cl)c2)cc1` [Compound I-0976], for which the IC50 worked out at 69 nM.

With `COC(=O)CC1(Cn2c(=O)[nH]/c(=N\c3ccc(OC(C)C)c(Cl)c3)n(Cc3ccc(Cl)cc3)c2=O)CC1` [Compound I-0977], the IC50 was determined as 15 nM.

Turning to `COC(=O)CC1(Cn2c(=O)[nH]/c(=N\c3ccc(OC(C)C)c(C)c3)n(Cc3ccc(Cl)cc3)c2=O)CC1` [Compound I-0978], the IC50 amounted to 13 nM.

Regarding `COC(=O)CC1(Cn2c(=O)[nH]/c(=N\c3ccc(OC(C)C)c(Cl)c3)n(Cc3ccc(C)cc3)c2=O)CC1` [Compound I-0979], the IC50 is 6 nM.

With `COC(=O)CC1(Cn2c(=O)[nH]/c(=N\c3ccc(OC(C)C)c(C)c3)n(Cc3ccc(C)cc3)c2=O)CC1` [Compound I-0980], the IC50 is 11 nM.

Take `CC(C)Oc1ccc(/N=c2\[nH]c(=O)n(CC3(CC(=O)O)CC3)c(=O)n2Cc2ccc(Cl)cc2)cc1Cl` [Compound I-0981]: the IC50 is 10 nM.

Turning to `Cc1cc(/N=c2\[nH]c(=O)n(CC3(CC(=O)O)CC3)c(=O)n2Cc2ccc(Cl)cc2)ccc1OC(C)C` [Compound I-0982], the concentration for half-maximal inhibition (IC50) was found to be 17 nM.

`Cc1ccc(Cn2c(=O)n(CC3(CC(=O)O)CC3)c(=O)[nH]/c2=N\c2ccc(OC(C)C)c(Cl)c2)cc1` [Compound I-0983]: the IC50 was determined as 7 nM.

`Cc1ccc(Cn2c(=O)n(CC3(CC(=O)O)CC3)c(=O)[nH]/c2=N\c2ccc(OC(C)C)c(C)c2)cc1` [Compound I-0984]: the IC50 was 21 nM.

On to `CCCOc1ccc(/N=c2\[nH]c(=O)n(CC3(C(=O)O)CC3)c(=O)n2Cc2ccc(Cl)cc2)cc1Cl` [Compound I-0986], for which the IC50 was 31 nM.

As for `CCOC(=O)C1(Cn2c(=O)[nH]/c(=N\c3ccc(OC(C)C)cc3)n(Cc3ccc(Cl)cc3)c2=O)CC1` [Compound I-0987], the IC50 is 15 nM.

Regarding `CC(C)Oc1ccc(/N=c2\[nH]c(=O)n(CC3(C(=O)O)CC3)c(=O)n2Cc2ccc(Cl)cc2)cc1` [Compound I-0988], the IC50 is 93 nM.

Take `COC(=O)[C@@H](C)Cn1c(=O)[nH]/c(=N\c2ccc(Oc3ccccc3)cc2)n(Cc2ccc(Cl)cc2)c1=O` [Compound I-0989, (S)-1-(4-chlorobenzyl)-3-(2-methoxycarbonylpropyl)-6-(4-phenoxy-phenylimino)-1,3,5-triazinane-2,4-dion]: the IC50 came out at 68 nM.

On to `COC(=O)[C@@H](C)Cn1c(=O)[nH]/c(=N\c2ccc(Oc3ccccc3)cc2)n(Cc2ccc(C)cc2)c1=O` [Compound I-0990], for which the IC50 amounted to 51 nM.

`C[C@@H](Cn1c(=O)[nH]/c(=N\c2ccc(Oc3ccccc3)cc2)n(Cc2ccc(Cl)cc2)c1=O)C(=O)O` [Compound I-0991, (S)-1-(4-chlorobenzyl)-3-(2-hydroxycarbonylpropyl)-6-(4-phenoxyphenylimino)-1,3,5-triazinane-2,4-dion]: the IC50 was determined as 22 nM.

With `Cc1ccc(Cn2c(=O)n(C[C@H](C)C(=O)O)c(=O)[nH]/c2=N\c2ccc(Oc3ccccc3)cc2)cc1` [Compound I-0992], the IC50 turned out to be 24 nM.

Regarding `COCO[C@@H](Cn1c(=O)[nH]/c(=N\c2ccc(OC(C)C)c(C)c2)n(Cc2ccc(Cl)cc2)c1=O)C(=O)OC` [Compound I-0993, (S)-1-(4-chlorobenzyl)-6-(3-mehyl-4-isopropoxyphenylimino)-3-[2-methoxycarbonyl-2-(methoxymethyloxy)ethyl]-1,3,5-triazinane-2,4-dion], the IC50 came out at 20 nM.
